This note sets out measurements from patent US20120258938A1, “Enzymatic Production or Chemical Synthesis and Uses for 5,7-Dienes and UVB Conversion Products Thereof” (priority 2008, published 2012).

The test system of series [1] is human dermal fibroblast line. Kind of series: TGF-b1 induced hyaluronan synthesis by dermal fibroblasts. The format is cell-based. An excerpt: There were found no significant differences in fibroblast numbers per well and no significant differences in trypan blue exclusion between control wells vs those with secosteroids range 95-100% (data not shown).
Series [2] has as its system AbC1 hamster melanoma cells. The experiment in a line: Proliferation (DNA synthesis) of AbC1. Type of series: cell-based. Particulars: AbC1, 72 h. The procedure:
To measure DNA synthesis, keratinocytes, melanoma or prostate cancer cells were plated in 96-well plates. After overnight incubation tested compounds were added to the medium to achieve final concentrations 10^−7-10^−10 [M]. 100 μl of medium per well containing vitamin D3 compound was added to the cells. After 36 hours of incubation [3H]-thymidine (specific activity 88.0 Ci/mmol; Amersham Biosciences, Picataway, N.Y., USA) was added at 1 μCi/mL medium. After 12 hours, media were discarded, cells detached with trypsin and harvested on a glass fiber filter (Packard, Meriden, Calif., USA). 3H-radioactivity was measured with a beta counter (Direct Beta-Counter Matrix 9600; Packard).
HaCaT keratinocytes were an incubated for 48 h (FIG. 48A) or 72 h (FIG. 48B) in the presence of graded concentrations of 20(OH)D2 and/or 1,25(OH)2D3. […] Data are shown as mean±SD (n 3); *, p<0.05; **, p<0.01.

In series [3] the test system is VDRE. Kind of series: VDRE-Luc reporter (with siRNA) in HaCaT keratinocytes. Type of series: cell-based, human. The settings on record: 24 h. How it is done: HaCaT keratinocytes were transfected with VDRE-Luc (gift from Dr. That Chen (27) and with scrambled or VDR siRNA (Dharmacon, Inc., Lafayette, Mo., on-Target plus smart pool human VDR L-003448-00, on-Target plus siControl non-targeting pool D-001810-10-05) using Lipofectamine Plus (Invitrogen, Carlsbad, Calif.) in DMEM medium. PhRL-TK (expresses Renilla luciferase) served as a normalization control; Promega, Madison, Wis.). After transfection, cells were incubated for 24 hours in DMEM with 5% FBS. Cells were then transferred to fresh media containing the compounds to be tested or vehicle (ethanol) and incubated for 24 hours. Levels of VDR and beta-actin 24 h after transfection were assessed with Western blot (VDR(D-6) antibody, sc-13133, 1:400, Santa Cruz, Inc., Santa Cruz, Calif.) performed as described previously (30.).
Construct CYP24-Luc and VDRE-Luc constructs were a generous gift from Dr. Tai Cheng, Ph.D. (Boston University Medical Campus, Core Lab Director). It was originally developed by Vaisanen et al. (27). PLuc and NFκB-Luc construct was described previously (28-29). huVDR construct was a generous gift from Dr. D. Bikle. HaCaT keratinocytes were transfected with NFκB-Luc, CYP-24-Luc, VDRE-Luc and hVDR constructs using Lipofectamine Plus (Invitrogen, Carlsbad, Calif.) in DMEM medium with firefly luciferase reporter gene plasmid and with phRL-TK.

Series [4] relates to MD-MBA-231. Kind of series: Flow cytometry cell cycle and subG1, MD-MBA-231. Type of series: cell-based, human. Particulars: MD-MBA-231, 24 h. The procedure: MD-MBA-231, MG-63, PC-3, and WM164 cells were seeded into Petri dishes and then incubated for 24 h with 20-hydroxycholecalciferol in DMEM medium containing 5% FBS. Then cells were fixed, DNA stained and samples read with flow cytometer as described (7). Data was analyzed with Cell Quest (BD Biosciences). Cell cycle phases were assessed in viable cell populations and subG1 contents were calculated within whole cell population.

Series [5] concerns TNFα. Kind of series: LPS-induced TNFα production by PBMC. The format is cell-based. Particulars: normal human PBMC, LPS (10 pg/ml), 10^−8M.
For series [6], the target named is T1, rat CYP24 (Rattus norvegicus, UniProt Q09128).
T1 sequence (Q09128 36-514): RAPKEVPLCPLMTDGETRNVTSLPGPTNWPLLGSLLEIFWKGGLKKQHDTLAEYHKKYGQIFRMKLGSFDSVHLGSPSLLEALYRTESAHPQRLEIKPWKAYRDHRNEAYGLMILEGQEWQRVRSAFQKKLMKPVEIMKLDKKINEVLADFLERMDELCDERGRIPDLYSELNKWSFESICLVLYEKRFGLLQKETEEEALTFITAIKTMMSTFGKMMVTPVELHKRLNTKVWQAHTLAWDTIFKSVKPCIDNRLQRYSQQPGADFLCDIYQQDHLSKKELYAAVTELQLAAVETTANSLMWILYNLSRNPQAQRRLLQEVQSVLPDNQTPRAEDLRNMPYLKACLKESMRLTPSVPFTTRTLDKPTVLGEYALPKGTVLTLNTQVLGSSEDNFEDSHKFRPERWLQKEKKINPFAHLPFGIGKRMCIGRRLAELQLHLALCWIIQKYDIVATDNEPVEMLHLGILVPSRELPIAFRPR
The experiment in a line: Metabolism by rat CYP24 in phospholipid vesicles. How it is done: Samples (typically 0.25-1.0 mL) were incubated at 37° C., with shaking, then reactions terminated by the addition of 2.5 mL ice-cold dichloromethane and vortexing. After phase separation aided by centrifugation, the lower organic phase was retained and the upper aqueous phase was extracted twice more with 2.5 mL aliquots of dichloromethane. The dichloromethane was removed under nitrogen and the residual sample dissolved in solvent for HPLC analysis.
To test enzymatic metabolism of 20S(OH)D3 and 20R(OH)D3, the substrates were incorporated into phospholipid vesicles with the ratio of substrate to phospholipid being 0.025 mol/mol phospholipid. Vesicles were incubated with 2 μM bovine CYP11A1 or 0.06 μM human CYP27B1 for up to 10 min. To test enzymatic metabolism of 20(OH)D3 in CYP24, the substrate was incorporated into phospholipids vesicles with 0.15-0.5 μM CYP24. To test enzymatic metabolism of 20(OH)D3 in CYP27A1, purified CYP27A1 was preincubated with the vesicles for 6 min at 37° C. Adrenodoxin was added last to initiate the reaction. For kinetic experiments, the incubations were typically 0.5 mL and were carried out over the initial linear period of the reaction (10 min for vitamin D3 and cholesterol and 30 min for 20(OH)D3).

In the case of `C=C1/C(=C\C=C2/CCC[C@]3(C)[C@@H]([C@H](C)CCCC(C)(C)O)CC[C@@H]23)C[C@@H](O)C[C@@H]1O` [1α,25-dihydroxycholecalciferol, (5Z,7E)-9,10-secocholesta-5,7,10(19)-triene-1α,3β,25-triol, reference compound], the “TGF-b1 induced hyaluronan synthesis” value in series [1] (10^−10 M) is “inhibited TGF-b1 induced hyaluronan synthesis”. Also, in series [2], the proliferation entry is given as “Dose dependent inhibition of the proliferation”.

As to `C=C1CC[C@H](O)C/C1=C/C=C1\CCC[C@@]2(C)[C@H]1CC[C@@H]2[C@@](C)(O)CCCC(C)C` [20(OH)D3, (5Z,7E)-9,10-secocholesta-5,7,10(19)-triene-3β,20-diol], in series [3] (10 nM, scrambled siRNA), the “increase in VDRE-driven luciferase activity” value is about 3 fold. For the same compound, in series [4], the “G0/G1 of viable cells” value is on record as 47%, the “G2/M of viable cells” value came out at 10, the “S of viable cells” value was 43% and the “Viable Cells” value was determined as 8. For the same compound, the subG1 in series [4] (whole cell population) was found to be 92. In addition, in series [5], the TNFα production stood at 2609 ± 1961 pg/mL. Also, in series [6], the Km is 0.028±0.007 mol substrate/mol phospholipid and the kcat/Km is given as 386 min^−1(mol substrate/mol phospholipid)^−1. In addition, in series [6] (phospholipid vesicles), the kcat is on record as 10.8±0.8 mol/min/mol CYP24, the “kcat/Km lower than for 1,25(OH)2D3” value is 24 fold and the “kcat/Km lower than that for 25(OH)D3” value is reported as 17 fold.

For `C=C1CC[C@H](O)C/C1=C/C=C1\CCC[C@]2(C)[C@@H](C(C)(O)CC(O)CC(C)C)CC[C@@H]12` (stereo partly drawn) [20,23-dihydroxycholecalciferol, (5Z,7E)-9,10-secocholesta-5,7,10(19)-triene-3β,20,23-triol], in series [3] (HaCaT, 10 nM and 100 nM), the VDRE-Luc activity result is “Activation of VDRE”.

As for `C=C1CC[C@H](O)C/C1=C/C=C1\CCC[C@]2(C)[C@@H](C(C)=O)CC[C@@H]12` [pD3, (5Z,7E)-3β-hydroxy-9,10-secopregna-5,7,10(19)-trien-20-one], the “Hyaluronan CPM/Well (mean ± SEM) × 10^−5 FB” value in series [1] (hrTGF-b1 5 ng/ml, secosteroids at 10^−10M) came to 135 ± 25 CPM/Well × 10^−5 FB.
